Test results reported in publication PMC3597028 (Disease Models & Mechanisms, 2012).

Molecular target: PAD2 (peptidylarginine deiminase 2) (Homo sapiens, UniProt Q9Y2J8)
Type: biochemical

Chain of PAD2 (peptidylarginine deiminase 2) (Q9Y2J8 whole entry): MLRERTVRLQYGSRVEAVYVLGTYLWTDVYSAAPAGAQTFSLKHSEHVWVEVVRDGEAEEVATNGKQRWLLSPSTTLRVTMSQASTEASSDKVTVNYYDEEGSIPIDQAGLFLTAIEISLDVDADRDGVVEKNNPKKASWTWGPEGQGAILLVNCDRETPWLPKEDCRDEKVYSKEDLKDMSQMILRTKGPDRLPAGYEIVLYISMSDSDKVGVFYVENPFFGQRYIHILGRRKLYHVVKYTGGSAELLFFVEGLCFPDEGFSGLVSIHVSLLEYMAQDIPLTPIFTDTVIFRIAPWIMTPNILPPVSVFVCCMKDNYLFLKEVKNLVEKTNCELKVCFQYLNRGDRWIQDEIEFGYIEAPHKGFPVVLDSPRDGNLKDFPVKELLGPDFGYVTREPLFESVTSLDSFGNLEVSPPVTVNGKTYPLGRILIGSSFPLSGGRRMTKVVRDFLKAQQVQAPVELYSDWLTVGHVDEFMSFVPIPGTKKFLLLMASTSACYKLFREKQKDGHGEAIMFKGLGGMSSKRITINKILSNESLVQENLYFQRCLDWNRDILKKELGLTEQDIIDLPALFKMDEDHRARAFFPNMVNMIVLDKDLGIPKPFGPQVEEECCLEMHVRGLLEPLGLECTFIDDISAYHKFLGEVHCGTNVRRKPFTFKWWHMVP

IC50: 14.4 mM
Compound: N=C(N)CCl [2CA, 2-chloroacetamidine]
